Results as given in the supplement of paper PMC10307832.

Tests used:
Experiment in all cases: relative viability (nuclei count vs DMSO), 5 days (fraction); higher = more cells survive
AT-7519 + Navitoclax = compound: O=C(NC1CCNCC1)c1n[nH]cc1NC(=O)c1c(Cl)cccc1Cl [AT-7519] + CC1(C)CCC(c2ccc(Cl)cc2)=C(CN2CCN(c3ccc(C(=O)NS(=O)(=O)c4ccc(N[C@H](CCN5CCOCC5)CSc5ccccc5)c(S(=O)(=O)C(F)(F)F)c4)cc3)CC2)C1 [Navitoclax] (partner 0.5 µM)
Outline: (§1)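 The day after seeding in 1536-well plates, lung cancer cell lines were treated by pin tool with a single drug, or with a fixed anchor-drug dose together with five library-drug doses (not always all listed) in √10 steps. After 5 days, a combined fix-and-stain solution (final 0.05% Triton X-100, 1% formaldehyde, 1 ug/ml Hoechst) was added. Nuclei counted on 4× images gave relative viability as treated counts over vehicle counts, reported as the median of duplicate plates.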

[1] = compound: C1=CC2=C(C=C(C(=C2N=C1)O)N=NC3=CC4=C(C=C3)C=C(C=C4)S(=O)(=O)O)S(=O)(=O)O + COc1cc2c(Oc3ccc(NC(=O)C4(C(=O)Nc5ccc(F)cc5)CC4)cc3F)ccnc2cc1OCCCN1CCOCC1 [Foretinib] (partner 0.25 µM)
Outline: as §1

[2] = compound: C1=CC2=C(C=C(C(=C2N=C1)O)N=NC3=CC4=C(C=C3)C=C(C=C4)S(=O)(=O)O)S(=O)(=O)O + Nc1ncn([C@H]2C[C@H](O)[C@@H](CO)O2)c(=O)n1 [Decitabine] (partner 2 µM)
Outline: as §1

AT-7519 + Decitabine = compound: O=C(NC1CCNCC1)c1n[nH]cc1NC(=O)c1c(Cl)cccc1Cl [AT-7519] + Nc1ncn([C@H]2C[C@H](O)[C@@H](CO)O2)c(=O)n1 [Decitabine] (partner 2 µM)
Outline: as §1

Cell Line	relative viability (AT-7519 + Navitoclax; first compound 0.01 µM)	relative viability (AT-7519 + Navitoclax; first compound 0.03162 µM)	relative viability (AT-7519 + Navitoclax; first compound 0.3162 µM)	relative viability (AT-7519 + Navitoclax; first compound 1 µM)	relative viability ([1]; first compound 0.08 µM)	relative viability ([1]; first compound 0.253 µM)	relative viability ([1]; first compound 0.8 µM)	relative viability ([1]; first compound 2.53 µM)	relative viability ([1]; first compound 8 µM)	relative viability ([2]; first compound 0.08 µM)	relative viability ([2]; first compound 0.253 µM)	relative viability ([2]; first compound 0.8 µM)	relative viability ([2]; first compound 2.53 µM)	relative viability ([2]; first compound 8 µM)	relative viability (AT-7519 + Decitabine; first compound 0.01 µM)	relative viability (AT-7519 + Decitabine; first compound 0.03162 µM)	relative viability (AT-7519 + Decitabine; first compound 0.3162 µM)	relative viability (AT-7519 + Decitabine; first compound 1 µM)
NCI-H23	0.858	0.622	1.02	0.461	0.544	0.923	0.925	1.04	0.84	0.331	0.304	0.335	0.311	0.302	0.296	0.296	0.298	0.254
NCI-H322M	1.07	1.16	1.09	1.07	1.1	0.989	0.919	0.89	0.95	0.764	0.715	0.708	0.723	0.768	0.654	0.643	0.631	0.554
NCI-H441	0.592	0.628	0.571	0.412	1.11	1.06	1.04	1.07	1.05	0.245	0.246	0.238	0.252	0.248	0.253	0.213	0.26	0.152
NCI-H460	0.965	1	0.932	0.0202	1.12	1.01	1.01	1.01	0.928	0.506	0.487	0.501	0.497	0.387	0.452	0.432	0.388	0.0681
NCI-H520	1.14	0.991	0.986	0.605	1.01	0.828	0.901	0.887	1.05	0.525	0.519	0.542	0.468	0.508	0.547	0.492	0.507	0.395
NCI-H596	1	1.06	0.951	0.637	0.902	0.904	0.82	1.01	0.737	1.1	0.954	1.01	1.02	1.38	0.939	0.967	0.789	1.16
NCI-H647	1.11	1.19	1.12	0.762	1.33	1.09	1.14	1.28	1.3	0.35	0.412	0.415	0.45	0.401	0.379	0.37	0.416	0.237
NCI-H727	0.374	0.449	0.245	0.121	0.939	0.759	0.835	1.03	0.774	0.951	0.854	0.793	0.929	0.801	0.927	0.746	0.874	0.509
NCI-H838	1.22	1.06	1.09	0.147	1.13	1.06	1.04	1.03	1.04	0.469	0.441	0.434	0.514	0.44	0.479	0.45	0.383	0.152
NCI-H1355	0.984	0.873	1.09	0.865	1.1	0.988	0.92	1.03	0.996	0.4	0.363	0.362	0.353	0.352	0.347	0.347	0.359	0.331
NCI-H1395	1.62	1.17	1.03	0.831	0.965	0.988	0.956	1.03	1	0.724	0.734	0.737	0.714	0.691	0.658	0.726	0.691	0.582
NCI-H1437	1.03	1.08	1.1	0.455	1.33	1.23	1.32	1.27	0.66	0.603	0.567	0.655	0.586	0.566	0.527	0.59	0.548	0.347
NCI-H1650	1.32	1.21	1.2	0.291	1.34	1.17	1.38	1.01	0.448	0.438	0.37	0.511	0.447	0.318	0.401	0.388	0.431	0.204
NCI-H1651	0.983	1.08	0.997	0.882	0.923	0.727	0.864	0.857	0.623	0.79	0.548	0.659	0.658	0.535	0.678	0.555	0.626	0.614
NCI-H1666	0.893	0.758	0.724	0.316	1.05	0.962	0.962	0.958	0.747	0.821	0.711	0.716	0.815	0.747	0.819	0.725	0.774	0.673
NCI-H1734	0.893	0.758	0.686	0.452	0.916	0.892	0.777	0.891	0.88	0.493	0.439	0.461	0.488	0.503	0.46	0.463	0.486	0.351
NCI-H1755	1.05	0.983	1.02	0.986	0.915	0.916	0.869	0.944	0.89	0.771	0.679	0.714	0.737	0.698	0.724	0.721	0.825	0.716
NCI-H1793	0.352	0.416	0.313	0.365	0.539	0.606	0.674	0.749	0.71	0.527	0.521	0.409	0.47	0.49	0.517	0.551	0.449	0.378
NCI-H1915	0.817	0.83	0.758	0.785	1.12	1.04	1.09	1.13	1.12	0.25	0.25	0.268	0.263	0.274	0.25	0.248	0.288	0.235
NCI-H1944	0.988	1.06	1.14	0.982	0.899	0.937	0.93	0.769	0.748	0.448	0.437	0.446	0.376	0.38	0.443	0.415	0.434	0.344
NCI-H1975	1.01	1.02	0.87	0.236	0.912	1.02	0.916	1.04	0.952	0.462	0.393	0.405	0.384	0.408	0.398	0.371	0.252	0.271
NCI-H1993	0.895	0.781	0.984	0.548	0.766	0.78	0.825	0.734	0.643	0.573	0.669	0.624	0.59	0.634	0.671	0.597	0.543	0.391
NCI-H2009	1.19	1.19	1.19	0.96	1.3	1.25	1.18	1.28	0.739	0.351	0.327	0.358	0.373	0.297	0.395	0.406	0.446	0.309
NCI-H2023	1.1	0.938	0.847	0.323	0.769	0.747	0.794	0.997	0.876	0.24	0.243	0.258	0.24	0.19	0.201	0.234	0.209	0.125
NCI-H2085	1.18	1.21	0.967	0.658	1.08	0.886	0.894	0.963	0.634	0.561	0.53	0.496	0.631	0.546	0.621	0.561	0.532	0.508
NCI-H2087	1.03	0.964	1.04	0.0625	1.07	1.14	0.873	1.1	0.921	0.244	0.259	0.222	0.131	0.24	0.24	0.257	0.262	0.0751
NCI-H2126	0.893	0.866	0.83	0.823	1.22	1.16	1.22	1.25	1.15	0.577	0.567	0.599	0.612	0.609	0.524	0.568	0.552	0.495
NCI-H2170	0.566	0.497	0.61	0.45	1.05	0.925	0.958	0.799	0.954	0.494	0.454	0.464	0.429	0.459	0.495	0.454	0.461	0.522
NCI-H2347	0.741	0.675	0.745	0.59	1.07	1.12	0.766	1.13	0.801	0.586	0.61	0.602	0.629	0.614	0.561	0.59	0.571	0.526
